We go through nine compounds from PubChem BioAssay (NCI).

Molecules are shown by their SMILES.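 These data come from cells grown in 96-well plates and exposed to compound for 48 hours at five concentrations. The concentration for 50% growth inhibition is given as GI50. TGI: concentration producing complete growth inhibition.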 A value given as a limit tells only on which side of the number the result lay.

Some test systems named below: MDA-MB-231 breast; 786-0 renal; UO-31 renal; M14 melanoma; A549 NSCLC; OVCAR-3 ovarian; HCT-116 colon; SN12C renal; A498 renal; T-47D breast.
Common to all, as to experiment: DTP human tumour cell line panel, 48 h

For orientation: GI50 means the concentration at which growth is held to half of that of the control. A word on the TGI: it is the concentration giving total growth inhibition. A low value points to greater sensitivity of the cells. As to `C=C1C(=O)O[C@H]2[C@H]1CC/C(Cn1cc(-c3ccccc3)nn1)=C\CC[C@@]1(C)O[C@@H]21`, the GI50 was 2 µM with MDA-MB-231 breast; 2.63 µM with 786-0 renal; 0.87 µM with UO-31 renal; 1.78 µM in the assay on M14 melanoma; 5.88 µM in the assay on A549 NSCLC; 1.4 µM in the assay on OVCAR-3 ovarian. Further, the GI50 with HCT-116 colon was 1.17 µM; in the assay on SN12C renal, 4.5 µM; in the assay on A498 renal, 7.8 µM; in the assay with T-47D breast, 1.3 µM. For the same compound, the TGI in the assay on MDA-MB-231 breast came out at 7.89 µM; with 786-0 renal it was 8.79 µM; with UO-31 renal, 1.96 µM; with M14 melanoma it was 7.6 µM; in the assay with A549 NSCLC, 13.8 µM; in the assay with OVCAR-3 ovarian, 4.38 µM. Besides, the total growth inhibition concentration (TGI) in the assay with HCT-116 colon was 2.7 µM; in the assay on SN12C renal it was 11.5 µM; in the assay on A498 renal, 15 µM; with T-47D breast, 3.94 µM.
For the compound `CCN(CC)CCCCCCCNc1c2ccc(Cl)cc2nc2ccc(OC)cc12`, the GI50 in the assay on MDA-MB-231 breast is 1.48 µM; in the assay with 786-0 renal, 0.902 µM; in the assay on UO-31 renal, 0.545 µM; in the assay on M14 melanoma, 1.34 µM; in the assay with A549 NSCLC it was 0.664 µM; in the assay on OVCAR-3 ovarian, 1.55 µM. In addition, the 50% growth inhibitory concentration (GI50) in the assay with HCT-116 colon is 0.285 µM; in the assay with SN12C renal, 1.22 µM; with A498 renal it was 1.2 µM; in the assay on T-47D breast, 2.24 µM. Also, the TGI in the assay with MDA-MB-231 breast is 3.86 µM; with 786-0 renal it was 2.35 µM; in the assay with UO-31 renal, 2.03 µM; with M14 melanoma, 2.77 µM; in the assay on A549 NSCLC, 2.69 µM; in the assay with OVCAR-3 ovarian, 3.69 µM. The TGI in the assay with HCT-116 colon turned out to be 0.801 µM; in the assay with SN12C renal, 5.36 µM; with A498 renal, 2.51 µM; in the assay on T-47D breast, 4.97 µM.
Turning to `CCOC(=O)Oc1c(OC)cc(C(=O)O[C@@H]2C[C@@H]3CN4CCc5c([nH]c6cc(OC)ccc56)[C@H]4C[C@@H]3[C@H](C(=O)OC)[C@H]2OC)cc1OC`, the GI50 with MDA-MB-231 breast is 2.56 µM; in the assay with 786-0 renal it was 9.62 µM; with UO-31 renal it was 5.18 µM; in the assay with M14 melanoma, 4.44 µM; in the assay with A549 NSCLC it was 3.41 µM; in the assay on OVCAR-3 ovarian, 4.62 µM. For the same compound, the GI50 with HCT-116 colon was 1.73 µM; in the assay with SN12C renal it was 4.34 µM; in the assay on A498 renal it was 7.38 µM; in the assay with T-47D breast, 2.97 µM. The TGI in the assay on MDA-MB-231 breast is 19.6 µM; in the assay with 786-0 renal, 25.3 µM; in the assay with UO-31 renal, over 100 µM; with M14 melanoma it was 18.9 µM; in the assay on A549 NSCLC, 14.2 µM; in the assay on OVCAR-3 ovarian, 16.1 µM. Also, the TGI with HCT-116 colon was 3.58 µM; in the assay on SN12C renal it was 17.7 µM; in the assay with A498 renal, over 100 µM; with T-47D breast it was 20.1 µM.
Take `O=C(CCCn1ccnc1[N+](=O)[O-])NCCn1ccnc1`: the concentration for total growth inhibition (TGI) in the assay on MDA-MB-231 breast, in the assay with 786-0 renal, with UO-31 renal, in the assay with M14 melanoma, in the assay on A549 NSCLC and in the assay with OVCAR-3 ovarian was over 100 µM each time. The total growth inhibition concentration (TGI) in the assay on HCT-116 colon, with SN12C renal, with A498 renal and in the assay with T-47D breast was over 100 µM throughout.
Take `O=C1c2ccccc2-c2c1c1ccccc1c(=O)n2CCCN1CCOCC1`: the GI50 was 12 µM in the assay with MDA-MB-231 breast; 3.94 µM with 786-0 renal; 17.1 µM with UO-31 renal; 99.2 µM with M14 melanoma; 26.2 µM with A549 NSCLC; 25 µM in the assay on OVCAR-3 ovarian. Besides, the GI50 is 13.6 µM with HCT-116 colon, 21.3 µM with SN12C renal, 21.7 µM in the assay on A498 renal and 19.6 µM with T-47D breast. For the same compound, the TGI with MDA-MB-231 breast is 34.1 µM; in the assay on 786-0 renal, 18.5 µM; in the assay with UO-31 renal, over 100 µM; in the assay with M14 melanoma it was over 100 µM; in the assay with A549 NSCLC it was over 100 µM; with OVCAR-3 ovarian, over 100 µM. Besides, the total growth inhibition concentration (TGI) is 31.8 µM with HCT-116 colon, over 100 µM with SN12C renal, 71.4 µM in the assay on A498 renal and 97.4 µM with T-47D breast.
With `Cc1ccc2c(=O)c3cccc(CC(=O)O)c3oc2c1C`, the GI50 with MDA-MB-231 breast, in the assay on 786-0 renal, with UO-31 renal, in the assay with M14 melanoma, in the assay on A549 NSCLC and in the assay on OVCAR-3 ovarian was over 100 µM in each case. In addition, the GI50 in the assay with HCT-116 colon is over 100 µM; with SN12C renal it was over 100 µM; in the assay on A498 renal it was 70.6 µM; with T-47D breast it was over 100 µM. The concentration for total growth inhibition (TGI) in the assay on MDA-MB-231 breast, in the assay with 786-0 renal, in the assay with UO-31 renal, with M14 melanoma, with A549 NSCLC and in the assay on OVCAR-3 ovarian was over 100 µM in each case. Moreover, the TGI in the assay with HCT-116 colon, in the assay with SN12C renal, with A498 renal and in the assay on T-47D breast was over 100 µM each time.
Take `CCOC(CN=c1nc(N(C)C)ss1)OCC`: the TGI in the assay with MDA-MB-231 breast was 29.8 µM; with 786-0 renal, 39.7 µM; in the assay on UO-31 renal, 63.3 µM; in the assay on M14 melanoma it was 35.5 µM; in the assay on A549 NSCLC, over 100 µM; in the assay on OVCAR-3 ovarian, over 46.4 µM. Also, the TGI was 31.2 µM in the assay with HCT-116 colon, 36.8 µM in the assay on SN12C renal, over 100 µM in the assay on A498 renal and over 63.7 µM in the assay on T-47D breast.
`S=C(N/N=C/c1ccccn1)Nc1ccccn1`: the GI50 is 0.642 µM in the assay with MDA-MB-231 breast; 2.58 µM with 786-0 renal; 1.01 µM in the assay with UO-31 renal; 2.34 µM with A549 NSCLC; 0.327 µM with OVCAR-3 ovarian; 0.371 µM in the assay with HCT-116 colon. Besides, the GI50 is 1.95 µM with SN12C renal, 1.62 µM in the assay with A498 renal and 1.93 µM in the assay with T-47D breast. Further, the concentration for total growth inhibition (TGI) with MDA-MB-231 breast is over 100 µM; with 786-0 renal, 36.4 µM; with UO-31 renal, over 100 µM; with A549 NSCLC, 76.6 µM; with OVCAR-3 ovarian, 3.14 µM; in the assay on HCT-116 colon, over 100 µM. The TGI with SN12C renal was over 100 µM; with A498 renal, 33.9 µM; in the assay with T-47D breast, 90.7 µM.
For `COC(=O)C(Nc1ccc(OC)cc1)c1ccccc1` (stereo unspecified), the TGI in the assay on 786-0 renal, in the assay on UO-31 renal, in the assay on M14 melanoma, in the assay on A549 NSCLC, in the assay on OVCAR-3 ovarian and in the assay with HCT-116 colon was over 100 µM throughout. For the same compound, the TGI in the assay with SN12C renal and with T-47D breast was over 100 µM throughout.
